The assay addresses PD-1/PD-L1 protein/protein interaction (Homo sapiens (Human), UniProt Q9NZQ7). Nature of the assay: PD-1/PD-L1 Homogeneous Time-Resolved Fluorescence (HTRF) Binding Assay. To be noted: recombinant human PD-1 (Fc tag) 3 nM, human PD-L1 (His-tag) 10 nM, 25° C., PBS pH 7.4. The protocol: Example A. PD-1/PD-L1 Homogeneous Time-Resolved Fluorescence (HTRF) Binding Assay
The assays were conducted in a standard black 384-well polystyrene plate with a final volume of 20 μL. Inhibitors were first serially diluted in DMSO and then added to the plate wells before the addition of other reaction components. The final concentration of DMSO in the assay was 1%. The assays were carried out at 25° C. in the PBS buffer (pH 7.4) with 0.05% Tween-20 and 0.1% BSA. Recombinant human PD-L1 protein (19-238) with a His-tag at the C-terminus was purchased from AcroBiosystems (PD1-H5229). Recombinant human PD-1 protein (25-167) with Fc tag at the C-terminus was also purchased from AcroBiosystems (PD1-H5257). PD-L1 and PD-1 proteins were diluted in the assay buffer and 10 μL was added to the plate well. Plates were centrifuged and proteins were preincubated with inhibitors for 40 minutes. The incubation was followed by the addition of 10 μL of HTRF detection buffer supplemented with Europium cryptate-labeled anti-human IgG (PerkinElmer-AD0212) specific for Fc and anti-His antibody conjugated to SureLight®-Allophycocyanin (APC, PerkinElmer-AD0059H). After centrifugation, the plate was incubated at 25° C. for 60 min. before reading on a PHERAstar FS plate reader (665 nm/620 nm ratio). Final concentrations in the assay were […], 10 nM PD-L1, 1 nM europium anti-human IgG and 20 nM anti-His-Allophycocyanin. IC50 determination was performed by fitting the curve of percent control activity versus the log of the inhibitor concentration using the GraphPad Prism 5.0 software.
(In general: Time-resolved FRET reads energy transfer from a long-lived donor to a nearby acceptor.)

As a reminder, the IC50 is the point on the concentration scale where inhibition reaches its midpoint.

Sequence of PD-1/PD-L1 protein/protein interaction (Q9NZQ7 19-238): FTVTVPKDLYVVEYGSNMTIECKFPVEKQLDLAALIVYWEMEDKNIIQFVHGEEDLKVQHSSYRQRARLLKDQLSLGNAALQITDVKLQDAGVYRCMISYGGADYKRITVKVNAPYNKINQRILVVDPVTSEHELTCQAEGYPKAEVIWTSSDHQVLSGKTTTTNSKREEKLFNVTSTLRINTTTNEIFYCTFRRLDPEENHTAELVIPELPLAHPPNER

Take `Cc1c(NC(=O)c2ccc(CN3CCCC[C@H]3C(=O)O)cn2)cccc1-c1cccc(NC(=O)c2ccc(CNCCO)cn2)c1Cl` [Example 7, (S)-1-((6-(2′-chloro-3′-(5-((2-hydroxyethylamino)methyl)picolinamido)-2-methylbiphenyl-3-ylcarbamoyl)pyridin-3-yl)methyl)piperidine-2-carboxylic Acid]: the IC50 was at most 10 nM.
For `Cc1c(NC(=O)c2ccc(CN3CC(C(=O)O)C3)cn2)cccc1-c1cccc(NC(=O)c2ccc(CN3CC[C@@H](O)C3)cn2)c1Cl` [Example 10, (R)-1-((6-(2′-chloro-3′-(5-((3-hydroxypyrrolidin-1-yl)methyl)picolinamido)-2-methylbiphenyl-3-ylcarbamoyl)pyridin-3-yl)methyl)azetidine-3-carboxylic Acid] the value was at most 10 nM; for `Cc1c(NC(=O)c2ccc(CN3CCOC3=O)cn2)cccc1-c1cccc(NC(=O)c2ccc(CNCCO)cn2)c1Cl` [Example 5, N-(2-chloro-2′-methyl-3′-(5-((2-oxooxazolidin-3-yl)methyl)picolinamido)biphenyl-3-yl)-5-((2-hydroxyethylamino)methyl)picolinamide], at most 10 nM.
`COc1ccnc(C(=O)Nc2cccc(-c3cccc(NC(=O)c4cc(C)c(CN5CCCC[C@H]5C(=O)O)cn4)c3Cl)c2C)c1` [Example 13, (S)-1-((6-((2-chloro-3′-(4-methoxypicolinamido)-2′-methyl-[1,1′-biphenyl]-3-yl)carbamoyl)-4-methylpyridin-3-yl)methyl)piperidine-2-carboxylic Acid]: the IC50 is at most 10 nM.
For `Cc1c(NC(=O)c2ccc(CN3CC[C@H](C(=O)O)C3)cn2)cccc1-c1cccc(NC(=O)c2ccc(CN3CC[C@@H](O)C3)cn2)c1Cl` [Example 8, (S)-1-((6-(2′-chloro-3′-(5-(((R)-3-hydroxypyrrolidin-1-yl)methyl)picolinamido)-2-methylbiphenyl-3-ylcarbamoyl)pyridin-3-yl)methyl)pyrrolidine-3-carboxylic Acid] the value was at most 10 nM; for `Cc1c(NC(=O)c2ccc(CN3CCC(C(=O)O)CC3)cn2)cccc1-c1cccc(NC(=O)c2ccc(CN3CC[C@@H](O)C3)cn2)c1Cl` [Example 9, (R)-1-((6-(2′-chloro-3′-(5-((3-hydroxypyrrolidin-1-yl)methyl)picolinamido)-2-methylbiphenyl-3-ylcarbamoyl)pyridin-3-yl)methyl)piperidine-4-carboxylic Acid], at most 10 nM.
For the compound `Cc1cc(C(=O)Nc2cccc(-c3cccc(NC(=O)c4ccc(CN5CCCC5)cn4)c3Cl)c2C)ncc1CN1CCCC[C@H]1C(=O)O` [Example 12, (S)-1-((6-((2′-chloro-2-methyl-3′-(5-(pyrrolidin-1-ylmethyl)picolinamido)-[1,1′-biphenyl]-3-yl)carbamoyl)-4-methylpyridin-3-yl)methyl)piperidine-2-carboxylic acid], the IC50 is at most 10 nM.
For `Cc1c(NC(=O)c2ccc(CN3CCN(C)C3=O)cn2)cccc1-c1cccc(NC(=O)c2ccc(CN3CC[C@@H](O)C3)cn2)c1Cl` [Example 4, (R)—N-(2-chloro-2′-methyl-3′-(5-((3-methyl-2-oxoimidazolidin-1-yl)methyl)picolinamido)biphenyl-3-yl)-5-((3-hydroxypyrrolidin-1-yl)methyl)picolinamide] the value was at most 10 nM; for `O=C(Nc1cccc(-c2cccc(NC(=O)c3nc4c(s3)CNCC4)c2F)c1Cl)c1ccc(CN2CCCC[C@H]2C(=O)O)cn1` [Example 11, (S)-1-((6-((2-chloro-2′-fluoro-3′-(4,5,6,7-tetrahydrothiazolo[5,4-c]pyridine-2-carboxamido)-[1,1′-biphenyl]-3-yl)carbamoyl)pyridin-3-yl)methyl)piperidine-2-carboxylic Acid], at most 10 nM.
`Cc1c(NC(=O)c2ccc(CN3CCOC3=O)cn2)cccc1-c1cccc(NC(=O)c2ccc(CN3CC[C@@H](O)C3)cn2)c1Cl` [Example 6, (R)—N-(2-chloro-2′-methyl-3′-(5-((2-oxooxazolidin-3-yl)methyl)picolinamido)biphenyl-3-yl)-5-((3-hydroxypyrrolidin-1-yl)methyl)picolinamide]: the IC50 is at most 10 nM.
As to `Cc1c(NC(=O)c2ccc(CNCCO)cn2)cccc1-c1cccc(NC(=O)c2ccc(CNCCO)cn2)c1Cl` [Example 1, N,N′-(2-chloro-2′-methylbiphenyl-3,3′-diyl)bis(5-((2-hydroxyethylamino)methyl)picolinamide)], the IC50 is at most 10 nM.
`Cc1c(NC(=O)c2ccc(CN3CCCC[C@H]3C(=O)O)cn2)cccc1-c1cccc(NC(=O)c2ccc(CN3CCCC[C@H]3C(=O)O)cn2)c1Cl` [Example 2, (2S,2'S)-1,1′-(6,6′-(2-chloro-2′-methylbiphenyl-3,3′-diyl)bis(azanediyl)bis(oxomethylene)bis(pyridine-6,3-diyl))bis(methylene)dipiperidine-2-carboxylic Acid]: the IC50 is at most 10 nM.
Then `Cc1c(NC(=O)c2ccc(CN3CCN(C)C3=O)cn2)cccc1-c1cccc(NC(=O)c2ccc(CNCCO)cn2)c1Cl` [Example 3, N-(2-chloro-2′-methyl-3′-(5-((3-methyl-2-oxoimidazolidin-1-yl)methyl)picolinamido)biphenyl-3-yl)-5-((2-hydroxyethylamino)methyl)picolinamide], with at most 10 nM.
